ChEMBL document CHEMBL5316325, “Design and Synthesis of 3-Hydroxy-pyridin-4(1H)-ones-Ciprofloxacin Conjugates as Dual Antibacterial and Antibiofilm Agents against Pseudomonas aeruginosa” (J Med Chem, 2023)
≈ marks a conversion by molar mass, not a printed value. Calls of active or inactive are those of the source. The calls are words filed in the database; no cut-off is given here.

How the values were obtained:
[1] = tested on: Pseudomonas aeruginosa; assay: Antibiofilm activity against Pseudomonas aeruginosa PAO1 assessed as decrease in pyocyanin level at 3.44 uM by absorbance based assay relative to control; format: functional; design: scale not given: the % may be the effect or the level left
[2] = tested on: Pseudomonas aeruginosa; assay: Antibiofilm activity against Pseudomonas aeruginosa PAO1 in ABTGC medium assessed as biofilm biomass at MIC incubated for 24 hrs in presence of 40 uM Fe by crystal violet staining based assay relative to control; format: functional
[3] = tested on: Pseudomonas aeruginosa; assay: Antibacterial activity against Pseudomonas aeruginosa 1121 in MHB medium assessed as bacterial growth inhibition by CLSI based broth microdilution method; format: functional
[4] = tested on: Staphylococcus aureus; assay: Antibacterial activity against Staphylococcus aureus ATCC 25923 in MHB medium assessed as bacterial growth inhibition by CLSI based broth microdilution method; format: functional
[5] = tested on: Pseudomonas aeruginosa; assay: Antibiofilm activity against Pseudomonas aeruginosa PAO1 in ABTGC medium assessed as biofilm biomass at MIC incubated for 24 hrs by crystal violet staining based assay relative to control; format: functional
[6] = tested on: Staphylococcus aureus; assay: Antibacterial activity against methicillin-resistant Staphylococcus aureus ATCC 515992 in MHB medium assessed as bacterial growth inhibition by CLSI based broth microdilution method; format: functional
[7] = tested on: Pseudomonas aeruginosa; assay: Antibiofilm activity against Pseudomonas aeruginosa PAO1 in ABTGC medium assessed as biofilm biomass at MIC incubated for 24 hrs in presence of 10 uM Fe by crystal violet staining based assay relative to control; format: functional
[8] = tested on: Pseudomonas aeruginosa; assay: Antibiofilm activity against Pseudomonas aeruginosa PAO1 assessed as reduction in swarming motility at 3.44 uM incubated for 16 hrs relative to control; format: functional; design: scale not given: the % may be the effect or the level left
[9] = tested on: Pseudomonas aeruginosa; assay: Antibiofilm activity against Pseudomonas aeruginosa PAO1 in ABTGC medium assessed as biofilm biomass at 1/4 times MIC incubated for 24 hrs in presence of 40 uM Fe by crystal violet staining based assay relative to control; format: functional
[10] = tested on: Pseudomonas aeruginosa; assay: Antibacterial activity against Pseudomonas aeruginosa PAO1 assessed as reduction in bacterial CFU count at 8 times MIC measured after 4 hrs by time killing analysis; format: functional, organism-based
[11] = tested on: Pseudomonas aeruginosa; assay: Antibacterial activity against Pseudomonas aeruginosa PAO1 assessed as reduction in bacterial viability at MIC measured after 8 hrs by time killing analysis; format: functional, organism-based
[12] = tested on: Pseudomonas aeruginosa; assay: Antibacterial activity against Pseudomonas aeruginosa FB in MHB medium assessed as bacterial growth inhibition by CLSI based broth microdilution method; format: functional
[13] = tested on: Pseudomonas aeruginosa; assay: Antibiofilm activity against Pseudomonas aeruginosa PAO1 in ABTGC medium assessed as biofilm biomass at 1/4 times MIC incubated for 24 hrs by crystal violet staining based assay relative to control; format: functional
[14] = tested on: Pseudomonas aeruginosa; assay: Antibiofilm activity against Pseudomonas aeruginosa PAO1 in ABTGC medium assessed as biofilm biomass at 1/2 times MIC incubated for 24 hrs by crystal violet staining based assay relative to control; format: functional
[15] = tested on: Pseudomonas aeruginosa; assay: Antibiofilm activity against Pseudomonas aeruginosa PAO1 assessed as biofilm eradication at high concentration incubated for 36 hrs by crystal violet staining based assay; format: functional, organism-based
[16] = Toxicity in Caenorhabditis elegans infected with Pseudomonas aeruginosa PAO1 assessed as survival at MIC measured after 48 hrs by bright field microscopy relative to control; settings: read-out: Activity
[17] = tested on: Pseudomonas aeruginosa; assay: Antibiofilm activity against Pseudomonas aeruginosa PAO1 assessed as reduction in swimming motility at 3.44 uM incubated for 16 hrs relative to control; format: functional; design: scale not given: the % may be the effect or the level left
[18] = tested on: Pseudomonas aeruginosa; assay: Antibacterial activity against Pseudomonas aeruginosa PAO1 in MHB medium assessed as bacterial growth inhibition by CLSI based broth microdilution method; format: functional
[19] = tested on: HEK293; assay: Cytotoxicity against HEK293 cells upto 100 uM incubated for 48 hrs by MTT assay; format: toxicity, cell-based; settings: human, hek293, 48 h
[20] = tested on: Pseudomonas aeruginosa; assay: Antibiofilm activity against Pseudomonas aeruginosa PAO1 in ABTGC medium assessed as biofilm biomass at 1/2 times MIC incubated for 24 hrs in presence of 10 uM Fe by crystal violet staining based assay relative to control; format: functional
[21] = tested on: Pseudomonas aeruginosa; assay: Antibiofilm activity against Pseudomonas aeruginosa PAO1 assessed as decrease in pyocyanin level by absorbance based assay; format: functional, organism-based; settings: dose 1.72-6.88 µM
[22] = tested on: Escherichia coli; assay: Antibacterial activity against Escherichia coli ATCC 25922 in MHB medium assessed as bacterial growth inhibition by CLSI based broth microdilution method; format: functional
[23] = tested on: A549; assay: Cytotoxicity against human A549 cells upto 100 uM incubated for 16 hrs by MTT assay; format: toxicity, cell-based; settings: a549, 16 h
[24] = tested on: Pseudomonas aeruginosa; assay: Antibacterial activity against Pseudomonas aeruginosa PAO1 assessed as decrease in bacterial load at MIC measured for 12 hrs by absorbance based assay; format: functional, organism-based
[25] = tested on: Klebsiella pneumoniae; assay: Antibacterial activity against Klebsiella pneumoniae ATCC 700603 in MHB medium assessed as bacterial growth inhibition by CLSI based broth microdilution method; format: functional
[26] = tested on: Pseudomonas aeruginosa; assay: Antibacterial activity against Pseudomonas aeruginosa PAO1 assessed as log reduction in CFU/ml at 8 times MIC measured after 2 hrs by time killing analysis; format: functional
[27] = tested on: Pseudomonas aeruginosa; assay: Antibiofilm activity against Pseudomonas aeruginosa PAO1 in ABTGC medium assessed as biofilm biomass at 1/4 times MIC incubated for 24 hrs in presence of 10 uM Fe by crystal violet staining based assay relative to control; format: functional
[28] = tested on: Pseudomonas aeruginosa; assay: Antibacterial activity against Pseudomonas aeruginosa ATCC 27853 in MHB medium assessed as bacterial growth inhibition by CLSI based broth microdilution method; format: functional
[29] = tested on: Pseudomonas aeruginosa; assay: Antibacterial activity against Pseudomonas aeruginosa 1129 in MHB medium assessed as bacterial growth inhibition by CLSI based broth microdilution method; format: functional
[30] = tested on: Pseudomonas aeruginosa; assay: Antibiofilm activity against Pseudomonas aeruginosa PAO1 assessed as decrease in rhamnolipid level at 3.44 uM by absorbance based assay relative to control; format: functional; design: scale not given: the % may be the effect or the level left
[31] = tested on: Pseudomonas aeruginosa; assay: Antibacterial activity against Pseudomonas aeruginosa PAO1 assessed as reduction in bacterial viability at 8 times MIC measured after 4 hrs by time killing analysis; format: functional, organism-based
[32] = tested on: Pseudomonas aeruginosa; assay: Antibiofilm activity against Pseudomonas aeruginosa PAO1 assessed as reduction in twitching motility at 3.44 uM incubated for 16 hrs relative to control; format: functional; design: scale not given: the % may be the effect or the level left
[33] = tested on: Pseudomonas aeruginosa; assay: Antibiofilm activity against Pseudomonas aeruginosa PAO1 in ABTGC medium assessed as biofilm biomass at 1/2 times MIC incubated for 24 hrs in presence of 40 uM Fe by crystal violet staining based assay relative to control; format: functional
[34] = tested on: Pseudomonas aeruginosa; assay: Antibacterial activity against Pseudomonas aeruginosa 1167 in MHB medium assessed as bacterial growth inhibition by CLSI based broth microdilution method; format: functional
[35] = tested on: Pseudomonas aeruginosa; assay: Antibiofilm activity against Pseudomonas aeruginosa PAO1 assessed as biofilm eradication at 4 times MIC incubated for 24 hrs by crystal violet staining based assay relative to control; format: functional
[36] = tested on: Pseudomonas aeruginosa; assay: Antibacterial activity against Pseudomonas aeruginosa PAO1 in ABTGC medium assessed as bacterial growth inhibition; format: functional
[37] = tested on: Pseudomonas aeruginosa; assay: Antibiofilm activity against Pseudomonas aeruginosa PAO1 assessed as decrease in rhamnolipid level by absorbance based assay; format: functional, organism-based; settings: dose 1.72-6.88 µM
[38] = Toxicity in Caenorhabditis elegans assessed as survival rate at 50 to 100 uM measured after 48 hrs by bright field microscopy; settings: dose 50-100 µM

## Cc1cc(=O)c(O)c(CNC(=O)CCC(=O)N2CCN(c3cc4c(cc3F)c(=O)c(C(=O)O)cn4C3CC3)CC2)n1C
[1]
  Activity: 40%
[2]
  Activity: 211%
[3]
  MIC: 1.72 µM (≈ 1 µg/mL)
[4]
  MIC: 3.44 µM (≈ 2 µg/mL)
[5]
  Activity: 39%
[6]
  MIC: > 200 µM
[7]
  Activity: 39%
[8]
  Activity: 30%
[9]
  Activity: 205.2%
[10]
  Activity: Active
[11]
  Activity: Active
[12]
  MIC: 1.72 µM (≈ 1 µg/mL)
[13]
  Activity: 21.7%
[14]
  Activity: 111.5%
[15]
  Activity: Active
[16]
  survival at 48 h: 50%
[17]
  Activity: 63%
[18]
  MIC: 0.43 µM (≈ 0.25 µg/mL)
[19]
  Activity: Non-Toxic
[20]
  Activity: 111.5%
[21]
  Activity: Dose-Dependent Effect
[22]
  MIC: 0.03 µM (≈ 0.0174 µg/mL)
[23]
  Activity: Non-Toxic
[24]
  Activity: Active
[25]
  MIC: 1.72 µM (≈ 1 µg/mL)
[26]
  FC: 2
[27]
  Activity: 21.7%
[28]
  MIC: 0.86 µM (≈ 0.5 µg/mL)
[29]
  MIC: 3.44 µM (≈ 2 µg/mL)
[30]
  Activity: 20%
[31]
  Activity: Active
[32]
  Activity: 63%
[33]
  Activity: 223.4%
[34]
  MIC: 0.86 µM (≈ 0.5 µg/mL)
[35]
  Activity: 74.2%
[36]
  MIC: 6.88 µM (≈ 4 µg/mL)
[37]
  Activity: Dose-Dependent Effect
[38]
  Activity: Non-Toxic
